Molecular target: Pdr5 (Saccharomyces cerevisiae, UniProt P33302)
Test: ATPase assay, purified plasma membrane vesicles, Δpdr5 background subtracted
Format: biochemical
Conditions: 100 mM MOPS pH 7.4, 50 mM KCl, 10 mM MgCl2, 5 mM NaN3, 35 °C

Sequence of Pdr5 (P33302 whole entry): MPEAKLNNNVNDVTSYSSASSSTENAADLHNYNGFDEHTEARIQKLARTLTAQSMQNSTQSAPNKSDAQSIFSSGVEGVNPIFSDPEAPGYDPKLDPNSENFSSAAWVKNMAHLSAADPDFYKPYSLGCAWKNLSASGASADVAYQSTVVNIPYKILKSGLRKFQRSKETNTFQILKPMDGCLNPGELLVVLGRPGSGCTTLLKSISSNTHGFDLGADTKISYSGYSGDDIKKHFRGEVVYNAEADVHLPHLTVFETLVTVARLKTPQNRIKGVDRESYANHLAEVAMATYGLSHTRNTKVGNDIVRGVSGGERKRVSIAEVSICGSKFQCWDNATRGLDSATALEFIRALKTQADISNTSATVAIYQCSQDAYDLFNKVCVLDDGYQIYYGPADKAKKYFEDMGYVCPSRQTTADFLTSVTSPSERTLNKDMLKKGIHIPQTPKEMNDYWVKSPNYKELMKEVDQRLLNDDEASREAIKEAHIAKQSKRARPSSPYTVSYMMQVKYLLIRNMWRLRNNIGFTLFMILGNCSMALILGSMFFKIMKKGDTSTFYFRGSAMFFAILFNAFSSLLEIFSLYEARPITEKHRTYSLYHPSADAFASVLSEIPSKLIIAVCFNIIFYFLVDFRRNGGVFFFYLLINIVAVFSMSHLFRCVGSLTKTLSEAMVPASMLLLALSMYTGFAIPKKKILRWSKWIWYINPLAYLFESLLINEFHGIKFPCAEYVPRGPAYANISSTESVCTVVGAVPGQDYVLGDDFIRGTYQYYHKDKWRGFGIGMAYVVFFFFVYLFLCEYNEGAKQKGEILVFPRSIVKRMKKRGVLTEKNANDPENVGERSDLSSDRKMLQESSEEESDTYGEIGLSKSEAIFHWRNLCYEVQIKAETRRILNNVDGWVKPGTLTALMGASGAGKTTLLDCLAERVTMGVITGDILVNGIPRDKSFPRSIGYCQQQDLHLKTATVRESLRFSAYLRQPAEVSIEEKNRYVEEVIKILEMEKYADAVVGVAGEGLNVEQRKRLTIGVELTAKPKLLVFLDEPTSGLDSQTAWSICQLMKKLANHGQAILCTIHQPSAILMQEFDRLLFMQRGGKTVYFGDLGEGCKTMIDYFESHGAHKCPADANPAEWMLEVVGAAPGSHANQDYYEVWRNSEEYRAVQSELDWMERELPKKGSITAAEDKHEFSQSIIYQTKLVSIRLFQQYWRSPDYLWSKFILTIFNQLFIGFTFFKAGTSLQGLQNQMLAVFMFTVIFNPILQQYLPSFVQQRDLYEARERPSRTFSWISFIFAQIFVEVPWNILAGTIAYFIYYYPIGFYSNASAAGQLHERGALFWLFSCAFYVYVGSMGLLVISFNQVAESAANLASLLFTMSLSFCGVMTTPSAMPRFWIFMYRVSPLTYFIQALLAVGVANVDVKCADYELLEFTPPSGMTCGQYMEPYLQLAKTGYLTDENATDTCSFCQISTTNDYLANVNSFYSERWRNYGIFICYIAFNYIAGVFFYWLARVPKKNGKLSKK

## Nc1ncnc2c1ncn2[C@@H]1O[C@H](COP(=O)(O)OP(=O)(O)OP(=O)(O)O)[C@@H](O)[C@H]1O [ATP]
  Km: There was little or no difference in the observed Kms

Source: article PMC2954458 (Biochemistry, 2010)
